The target in assay [1] is 11-beta-hydroxysteroid dehydrogenase 1 (Homo sapiens, UniProt P28845). The assay is described as follows: Inhibitory concentration against human 11-beta-hydroxysteroid dehydrogenase 1.
The target in assay [2] is T1, 11-beta-hydroxysteroid dehydrogenase type 2 (Homo sapiens, UniProt P80365).
T1 sequence (P80365 whole entry): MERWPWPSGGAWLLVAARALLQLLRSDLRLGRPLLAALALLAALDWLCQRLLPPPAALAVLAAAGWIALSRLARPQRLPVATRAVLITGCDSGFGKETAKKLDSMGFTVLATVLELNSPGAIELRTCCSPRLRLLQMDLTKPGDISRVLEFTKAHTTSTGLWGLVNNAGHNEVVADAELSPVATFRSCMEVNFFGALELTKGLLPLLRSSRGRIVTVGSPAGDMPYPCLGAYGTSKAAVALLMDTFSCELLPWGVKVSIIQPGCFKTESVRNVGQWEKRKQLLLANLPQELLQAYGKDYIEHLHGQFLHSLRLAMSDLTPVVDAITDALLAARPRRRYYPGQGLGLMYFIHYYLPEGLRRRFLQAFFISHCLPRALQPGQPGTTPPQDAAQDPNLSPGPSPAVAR
As to the kind of experiment: Inhibitory concentration against human 11-beta-hydroxysteroid dehydrogenase 2.

The structures appear in SMILES notation. Where only a bound is given, the exact number is not on record here.

11-beta-hydroxysteroid dehydrogenase 1, sequence (P28845 whole entry): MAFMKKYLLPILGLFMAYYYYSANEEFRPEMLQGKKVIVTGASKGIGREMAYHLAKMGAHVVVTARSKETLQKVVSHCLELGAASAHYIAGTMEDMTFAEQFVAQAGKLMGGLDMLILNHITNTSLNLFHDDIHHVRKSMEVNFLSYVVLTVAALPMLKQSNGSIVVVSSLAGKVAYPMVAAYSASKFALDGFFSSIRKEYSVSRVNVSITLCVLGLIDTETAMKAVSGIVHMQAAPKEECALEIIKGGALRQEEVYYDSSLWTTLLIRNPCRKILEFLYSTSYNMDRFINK

Turning to `COC(=O)Cc1c(Cl)cccc1S(=O)(=O)Nc1nc(C)co1`, the IC50 (usually the point on the concentration scale where inhibition reaches its midpoint) in assay [1] is greater than 100 µM.
As to `Cc1coc(NS(=O)(=O)c2cccc(Cl)c2C)n1`, the IC50 in assay [1] came to 58.7 µM.
Consider `Cc1c(Cl)cccc1S(=O)(=O)Nc1nc(-c2ccc(C#N)cc2)co1`, for which the results for the IC50 in assay [1] and in assay [2] were 48 µM and greater than 200 µM, respectively.
`O=S(=O)(Nc1nc(-c2ccc(-c3ccccc3)cc2)co1)c1ccccc1`: the results for the IC50 in assay [1] and in assay [2] were 2.3 µM and greater than 200 µM, respectively.
The corresponding values for `CCN(CC)C(=O)Cc1csc(NS(=O)(=O)c2cccc(Cl)c2C)n1` are 1.5 µM and greater than 200 µM.
With `Cc1coc(NS(=O)(=O)c2cccc(Cl)c2CC(=O)O)n1`, the IC50 in assay [1] is greater than 100 µM.
For the compound `Cc1c(Cl)cccc1S(=O)(=O)Nc1nc(-c2ccccc2)co1`, the IC50 in assay [1] is 17.3 µM; in assay [2], greater than 200 µM.
The corresponding values for `CC(=O)N(C)c1ccc(S(=O)(=O)Nc2nc(C)c(C)o2)cc1` are 100 µM and greater than 200 µM.
The corresponding values for `O=C(CS(=O)(=O)c1ccccc1)c1ccc(C(F)(F)F)cc1` are 0.19 µM and greater than 200 µM.
Take `O=S(=O)(Nc1nc(-c2ccc(C(F)(F)F)cc2)co1)c1ccccc1`: the figures for the IC50 in assay [1] and in assay [2] were 9 µM and greater than 200 µM, respectively.
On the same counts, the results for `O=S(=O)(Nc1nc(-c2ccccc2)co1)c1ccccc1` are 23 µM and greater than 200 µM.

The values are drawn from ChEMBL document CHEMBL1139567, “Synthesis and biological evaluation of sulfonamidooxazoles and beta-keto sulfones: selective inhibitors of 11beta-hydroxysteroid dehydrogenase type I” (Bioorg Med Chem Lett, 2005).
